From US20090018150A1, “5-Ht2b Receptor Antagonists” (ASTERAND UK LIMITED, priority 2003, published 2009) come the findings set out here.

Test [1] deals with T1, human cloned 5-HT2B receptors (Homo sapiens, UniProt P41595).
T1 construct: expressed in transfected cells; host or cells: CHO-K1
The experiment in a line: Human cloned 5-HT2B receptor binding assay. As to conditions: [3H]LSD (1 nM) displacement, membranes of CHO-K1 cells expressing cloned 5-HT2B receptor; read-out: 5-HT2B pKi (converted). The method, then: The binding affinity of the compounds for human cloned 5-HT2B receptors was determined using the following assay.
CHO-K1 cells expressing cloned 5-HT2B receptor were maintained in Ultra-CHO medium containing 400 μg/ml of G418, 100 U/ml penicillin, 100 μg/ml streptomycin, 2.5 μg/ml fungizone and 1-foetal bovine serum, in 95/5% O2/CO2 at 37° C. The cells were harvested using 0.25% trypsin and were centrifuged at 800 rpm for 8 minutes. The cells were homogenised in 50 mM HEPES buffer containing 1 mM disodium EDTA and 1 mM PMSF at pH 7.4, using a Dounce homogeniser (20 strokes). The homogenate was centrifuged at 2280 rpm (1000 g) and 4° C. for 10 minutes, after which the supernatant was removed by decanting. The pellet was re-homogenised as above, and the resulting supernatant removed and combined with that already obtained. The supernatant solution was then centrifuged at 18300 rpm (40000 g) for 10 minutes at 4° C. using a Sorvall centrifuge. The supernatant was removed, and the pellet was re-suspended in 50 mM buffer at pH 7.4 using a Ultra-turrax T25 Polytron, before centrifugation again at 40000 g as above. This wash procedure was repeated, after which the membrane preparation was stored at a concentration of 1 mg/ml at −80° C. until use.
The membranes were thawed rapidly and diluted in assay buffer containing Tris-HCl (50 mM, pH 7.4), ascorbic acid (0.1°) and calcium chloride (4 mM). The membranes were homogenised to resuspend them, prior to adding 10 or 15 μg of membranes to assay wells containing [^3H]LSD (1 nM), assay buffer (50 mM Tris, 4 mM calcium chloride and 0.1° ascorbic acid) containing pargyline (10 μM), and the test compounds (1×10^−10 to 1×10^−4M). Non specific binding was determined in the presence of 100 μM 5-HT. After 30 minutes incubation at 37° C., the assay mixture was filtered through a combination of GF-C and GF-B filters, pre-soaked in 1% polyethyleneimine, using a Brandel cell harvester, and were washed three times using 50 mM Tris-HCl. Radioactivity retained on the filters was determined by liquid scintillation counting. For each test compound, the concentration that inhibited binding of [^3H]LSD by 50% was determined using curve fitting software (Prism). Kd values (concentration of LSD required to occupy 50% of the receptor binding sites at equilibrium) determined from saturation binding studies were then used to calculate inhibition dissociation constants (Ki) using the following equation: […]
This approach follows that set out in Kenakin, T. P. Pharmacologic analysis of drug-receptor interaction. Raven Press, New York, 2nd Edition.

The target of test [2] is T2, cloned human 5-HT2A receptor (Homo sapiens, UniProt P28223).
T2 construct: purchased Euroscreen; host or cells: CHO-K1
Briefly: Human 5-HT2A receptor binding assay. As to conditions: [3H]ketanserin (1 nM) displacement, CHO-K1 cell membranes; read-out: 5-HT2A pKi (converted). The method, then: (§1) The binding affinity of ligands for human 5-HT2A and 5-HT2C receptors was determined using the following assay.
Membrane preparations from CHO-K1 cells expressing the cloned human 5-HT2A receptor were obtained (Euroscreen). The membranes were thawed rapidly and diluted in assay buffer containing Tris-HCl (50 mM, pH 7.7). The membranes were resuspended by homogenisation, prior to adding 15 μg of membranes to assay wells containing [3H]ketanserin (1 nM), assay buffer (50 mM Tris at pH 7.4) containing pargyline (10 μM), and test compounds (1×10^−10 to 1×10^−4M). Non specific binding was determined in the presence of 100 μM mianserin. After 15 minutes incubation at 37° C., the assay mixture was filtered through a combination of GF-C and GF-B filters, pre-soaked in 0.05% Brij, using a Brandel cell harvester, and were washed three times using ice cold Tris-HCl buffer (50 mM). Radioactivity retained on the filters was determined by liquid scintillation counting. For each test compound, the concentration that inhibited binding of [^3H]ketanserin by 50% was determined using curve fitting software (Prism). Kd values (concentration of ketanserin required to occupy 50% of the receptor binding sites at equilibrium) determined from saturation binding studies were then used to calculate inhibition dissociation constants (Ki) using the following equation: […]

In test [3] the target is T3, cloned human 5-HT2C receptor (Homo sapiens, UniProt P28335).
T3 construct: purchased Euroscreen; host or cells: CHO-K1
T3 sequence (P28335 33-458): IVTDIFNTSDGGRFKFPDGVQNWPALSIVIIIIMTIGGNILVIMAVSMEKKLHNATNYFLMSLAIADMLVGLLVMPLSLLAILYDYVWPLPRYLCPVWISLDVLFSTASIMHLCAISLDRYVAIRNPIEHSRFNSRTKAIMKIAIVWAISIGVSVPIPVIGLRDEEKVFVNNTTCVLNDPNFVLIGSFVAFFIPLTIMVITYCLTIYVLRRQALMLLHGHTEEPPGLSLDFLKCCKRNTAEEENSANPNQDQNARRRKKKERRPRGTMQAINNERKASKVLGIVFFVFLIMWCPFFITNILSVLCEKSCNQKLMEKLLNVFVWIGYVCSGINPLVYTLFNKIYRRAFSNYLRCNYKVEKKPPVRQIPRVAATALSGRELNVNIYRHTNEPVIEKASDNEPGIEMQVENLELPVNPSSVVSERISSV
The experiment in a line: Human 5-HT2C receptor binding assay. As to conditions: [3H]mesulergine (1 nM) displacement, CHO-K1 cell membranes; read-out: 5-HT2C pKi (converted). The method, then:
as §1
Membrane preparations from CHO-K1 cells expressing the cloned human 5-HT2C receptor were obtained (Euroscreen). The membranes were thawed rapidly and diluted in assay buffer containing Tris-HCl (50 mM, pH 7.7), ascorbic acid (0.1%) and pargyline (10 μM). The membranes were resuspended by homogenisation, prior to adding 6 μg of membranes to assay wells containing [^3H]mesulergine (1 nM), assay buffer (50 mM Tris at pH 7.7 and 0.1% ascorbic acid) containing pargyline (10 μM), and test compounds (1×10^−10 to 1×10^−4M). Non specific binding was determined in the presence of 100 μM mianserin. After 30 minutes incubation at 37° C., the assay mixture was filtered through a combination of GF-C and GF-B filters, pre-soaked in 1% bovine serum albumin, using a Brandel cell harvester, and were washed three times using ice cold Tris-HCl buffer (50 mM). Radioactivity retained on the filters was determined by liquid scintillation counting. For each test compound, the concentration that inhibited binding of [^3H]mesulergine by 50% was determined using curve fitting software (Prism). Kd values (concentration of mesulergine required to occupy 50% of the receptor binding sites at equilibrium) determined from saturation binding studies were then used to calculate inhibition dissociation constants (Ki) using the following equation: […]

Structures are written as SMILES. Counter-ions that a name gives are not always drawn. Bounds are passed on as bounds.

T1 sequence (P41595 whole entry): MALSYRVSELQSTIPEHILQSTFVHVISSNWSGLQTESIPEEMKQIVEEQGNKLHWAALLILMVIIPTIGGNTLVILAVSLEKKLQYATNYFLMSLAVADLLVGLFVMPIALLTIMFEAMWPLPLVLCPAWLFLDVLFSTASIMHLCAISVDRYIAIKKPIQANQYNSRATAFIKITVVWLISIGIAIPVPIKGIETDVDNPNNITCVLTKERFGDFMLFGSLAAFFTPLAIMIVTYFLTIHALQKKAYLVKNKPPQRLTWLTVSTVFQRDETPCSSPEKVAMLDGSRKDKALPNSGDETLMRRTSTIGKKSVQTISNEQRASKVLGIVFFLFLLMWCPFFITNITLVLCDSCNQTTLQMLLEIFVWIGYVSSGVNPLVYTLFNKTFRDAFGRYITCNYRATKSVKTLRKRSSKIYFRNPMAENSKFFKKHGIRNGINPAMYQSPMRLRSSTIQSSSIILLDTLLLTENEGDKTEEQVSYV
T2 sequence (P28223 whole entry): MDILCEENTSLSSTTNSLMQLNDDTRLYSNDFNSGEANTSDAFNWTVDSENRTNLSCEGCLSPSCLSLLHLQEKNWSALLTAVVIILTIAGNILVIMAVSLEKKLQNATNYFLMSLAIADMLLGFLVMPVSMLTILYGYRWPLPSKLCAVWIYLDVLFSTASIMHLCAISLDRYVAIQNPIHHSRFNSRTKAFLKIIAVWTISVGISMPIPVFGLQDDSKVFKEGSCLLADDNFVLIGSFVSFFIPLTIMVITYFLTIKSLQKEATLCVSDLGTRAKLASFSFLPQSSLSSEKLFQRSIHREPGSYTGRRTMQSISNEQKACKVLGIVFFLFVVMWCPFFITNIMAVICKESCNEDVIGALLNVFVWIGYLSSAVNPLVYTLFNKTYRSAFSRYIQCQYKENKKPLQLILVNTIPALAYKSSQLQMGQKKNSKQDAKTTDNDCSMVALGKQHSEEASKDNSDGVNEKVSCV

Turning to `CC(=O)c1cccc(-c2cccc(Nc3cc(C)nc(N)n3)c2)c1` [Compound 10C, 1-[3′-(2-amino-6-methyl-pyrimidin-4-ylamino)-biphenyl-3-yl]-ethanone trifluoroacetic acid], the Ki in test [1] is under 1000 nM; in test [2] it was over 316 nM; in test [3], over 316 nM.
Regarding `CC(=O)Nc1nc(-c2c(O)ccc3ccccc23)c[nH]1` [Compound 103Q, N-[4-(2-hydroxy-naphthalen-1-yl)-1H-imidazol-2-yl]-acetamide], the Ki was under 1000 nM in test [1], over 3160 nM in test [2] and over 1000 nM in test [3].
As to `Nc1ncc(-c2cccc(-c3ccccc3)c2)o1` [Compound 209A, 5-Biphenyl-3-yl-oxazol-2-ylamine], the Ki in test [1] was under 316 nM; in test [2], over 10000 nM; in test [3], over 10000 nM.
Consider `Nc1ncc(-c2cccc(-c3cccc(O)c3)c2)o1` [Compound 209C, 3′-(2-Amino-oxazol-5-yl)-biphenyl-3-ol], for which the Ki in test [1] is under 1000 nM; in test [2] it was over 10000 nM; in test [3], over 10000 nM.
Regarding `CC(=O)Nc1nc(-c2cccc3sccc23)c[nH]1` [Compound 103L, N-(4-Benzo[b]thiophen-4-yl-1H-imidazol-2-yl)-acetamide], the Ki in test [1] is under 100 nM; in test [2], over 10000 nM; in test [3], over 10000 nM.
`CC(=O)Nc1cccc(-c2cccc(Nc3cc(C)nc(N)n3)c2)c1` [Compound 10I, N-[3′-(2-amino-6-methyl-pyrimidin-4-ylamino)-biphenyl-3-yl]-acetamide hydrochloride]: the values for the Ki in test [1], in test [2] and in test [3] were under 1000 nM, over 10000 nM and over 10000 nM, respectively.
For `Cc1cc(Nc2ccc3c(c2)CCC3)nc(N)n1` [Compound 2J, N^4-indan-5-yl-6-methyl-pyrimidine-2,4-diamine hydrochloride], the Ki in test [1] is under 100 nM; in test [2] it was over 10000 nM; in test [3] it was over 1000 nM.
For the compound `COc1ccc(-c2cccc(C)c2)cc1-c1cnc(N)o1` [Compound 224C, 5-(4-Methoxy-3′-methyl-biphenyl-3-yl)-oxazol-2-ylamine, trifluoroacetic acid], the Ki in test [1] was under 1000 nM; in test [2], over 1000 nM; in test [3] it was over 1000 nM.
For the compound `CC(=O)Nc1nc(-c2cccc3ccccc23)c[nH]1` [Compound 103N, N-(4-Naphthalen-1-yl-1H-imidazol-2-yl)-acetamide], the values for the Ki in test [1], in test [2] and in test [3] were under 1000 nM, over 10000 nM and over 10000 nM, respectively.
As for `CC(C)c1[nH]c(N)nc1-c1cccc2ccccc12` [Compound 104K, 5-Isopropyl-4-naphthalen-1-yl-1H-imidazol-2-ylamine], the Ki is under 100 nM in test [1], over 100 nM in test [2] and over 316 nM in test [3].
In the same order, the values of `Cc1cc(Nc2cc(Br)ccc2O)nc(N)n1` [Compound 2O, 2-(2-amino-6-methyl-pyrimidin-4-ylamino)-4-bromo-phenol hydrochloride] are under 1000 nM, over 1000 nM and over 100 nM.
On to `Cc1cc(C)cc(-c2cccc(-c3cnc(N)o3)c2)c1` [Compound 209K, 5-(3′,5′-Dimethyl-biphenyl-3-yl)-oxazol-2-ylamine, trifluoroacetic acid], for which the Ki in test [1] was under 1000 nM; in test [2], over 1000 nM; in test [3], over 1000 nM.
With `Cc1nc(N)oc1-c1cccc(-c2ccccc2)c1` [Compound 219A, 5-biphenyl-3-yl-4-methyl-oxazol-2-ylamine, trifluoroacetic acid], the Ki in test [1] was under 316 nM; in test [2], over 1000 nM; in test [3], over 1000 nM.
For the compound `Cc1cc(Oc2cccc(-c3ccccc3)c2)nc(N)n1` [Compound 4C, 4-(biphenyl-3-yloxy)-6-methylpyrimidin-2-ylamine], the figures for the Ki in test [1], in test [2] and in test [3] were under 1000 nM, over 10000 nM and over 10000 nM, respectively.
`Nc1nc(-c2cccc3c(Br)cccc23)c[nH]1` [Compound 104H, 4-(5-Bromo-naphthalen-1-yl)-1H-imidazol-2-ylamine]: the Ki in test [1] is under 100 nM; in test [2], over 316 nM; in test [3] it was over 100 nM.
On to `Cc1cc(Nc2ccc(F)c(F)c2)nc(N)n1` [Compound 2M, N^4-(3,4-difluoro-phenyl)-6-methyl-pyrimidine-2,4-diamine hydrochloride], for which the Ki is under 1000 nM in test [1], over 1000 nM in test [2] and over 1000 nM in test [3].
Regarding `Cc1cc(Nc2cccc(-c3ccc(N(C)C)cc3)c2)nc(N)n1` [Compound 10H, N^4-(4′-dimethylamino-biphenyl-3-yl)-6-methyl-pyrimidine-2,4-diamine bis trifluoroacetic acid], the Ki in test [1] is under 100 nM; in test [2], over 316 nM; in test [3], over 316 nM.
For `CC(=O)Nc1nc(-c2cccc3ccccc23)c(C)[nH]1` [Compound 103I, N-(5-Methyl-4-naphthalen-1-yl-1H-imidazol-2-yl)-acetamide], the results for the Ki in test [1], in test [2] and in test [3] were under 100 nM, over 1000 nM and over 1000 nM, respectively.
As to `Cc1cc(Nc2cccc(C(F)(F)F)c2)nc(N)n1` [Compound 2H, 6-Methyl-N^4-(3-trifluoromethyl-phenyl)-pyrimidine-2,4-diamine, hydrochloride], the Ki was under 1000 nM in test [1], over 10000 nM in test [2] and over 1000 nM in test [3].
As for `Cc1cc(Nc2ccccc2)nc(N)n1` [Compound 2A, N^4-phenyl-6-methyl-pyrimidine-2,4-diamine hydrochloric acid], the Ki in test [1] was under 1000 nM; in test [2], over 10000 nM; in test [3] it was over 1000 nM.
